In patent publication US9695155B2, “Herbicidal substituted pyrimidinyloxy benzene compounds” (E. I. DU PONT DE NEMOURS AND COMPANY, priority 2013, dated 2017):

How the values were obtained:
rice = test: Test C flooded paddy test; assay type: in vivo, Oryza sativa; details: Flood, scale 0 to 100 (0 no effect, 100 complete control), 13 to 15 days
In short: (§1)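 Ratings were visual and made relative to untreated controls after 13 to 15 greenhouse days.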

ducksalad = test: Test C flooded paddy test; assay type: in vivo, Heteranthera limosa; details: Flood, scale 0 to 100 (0 no effect, 100 complete control), 13 to 15 days
In short: as §1

corn = test: Test E postemergence; assay type: in vivo, Zea mays
Source text: (§2) Seeds of plant species selected from corn (Zea mays), soybean (Glycine max), velvetleaf (Abutilon theophrasti), lambsquarters (Chenopodium album), wild poinsettia (Euphorbia heterophylla), palmer pigweed (Amaranthus palmeri), waterhemp (common waterhemp, Amaranthus rudis), surinam grass (Brachiaria decumbens), large (Lg) crabgrass (Digitaria sanguinalis), Brazilian crabgrass (Digitaria horizontalis), fall panicum (Panicum dichotomiflorum), giant foxtail (Setaria faberii), green foxtail (Setaria viridis), goosegrass (Eleusine indica), johnsongrass (Sorghum halepense), ragweed (common ragweed, Ambrosia elatior), barnyardgrass (Echinochloa crus-galli), sandbur (southern sandbur, Cenchrus echinatus), arrowleaf sida (Sida rhombifolia), Italian ryegrass (Lolium multiflorum), dayflower (Virginia (VA) dayflower, Commelina virginica), field bindweed (Convolvulus arvensis), morningglory (Ipomoea coccinea), nightshade (eastern black nightshade, Solanum ptycanthum), kochia (Kochia scoparia), yellow nutsedge (Cyperus esculentus), cocklebur (common cocklebur, Xanthium strumarium), smartweed (ladysthumb smartweed, and hairy beggarticks (Bidens pilosa), were planted into a silt loam soil and treated preemergence with test chemicals formulated in a non-phytotoxic solvent mixture which included a surfactant.
(§3) At the same time, plants from these crop and weed species and also horseweed (Canada horseweed, Conyza canadensis), waterhemp_RES1, (ALS & Triazine resistant common waterhemp, Amaranthus rudis), and waterhemp_RES2, (ALS & HPPD resistant common waterhemp, Amaranthus rudis) were planted in pots containing Redi-Earth® planting medium (Scotts Company, 14111 Scottslawn Road, Marysville, Ohio 43041) comprising spaghnum peat moss, vermiculite, wetting agent and starter nutrients were treated with postemergence applications of test chemicals formulated in the same manner. Plants ranged in height from 2 to 18 cm for postemergence treatments (1- to 4-leaf stage). Treated plants and controls were maintained in a greenhouse for 14 to 21 days, after which time all species were compared to controls and visually evaluated. Plant response ratings, summarized in Table E, are based on a scale of 0 to 100 where 0 is no effect and 100 is complete control. A dash (-) response means no test result.

soybean = test: Test E postemergence; assay type: in vivo, Glycine max
Source text: as §2, §3

Brazilian crabgrass = test: Test E postemergence; assay type: in vivo, Digitaria horizontalis
Source text: as §2, §3

barnyardgrass = test: Test E postemergence; assay type: in vivo, Echinochloa crus-galli
Source text: as §2, §3

sandbur = test: Test E postemergence; assay type: in vivo, Cenchrus echinatus
Source text: as §2, §3

arrowleaf sida = test: Test E postemergence; assay type: in vivo, Sida rhombifolia
Source text: as §2, §3

[1] = Postemergence, 31 g ai/ha, scale 0 to 100
[2] = Postemergence, 62 g ai/ha, scale 0 to 100
[3] = Postemergence, 125 g ai/ha, scale 0 to 100
[4] = postemergence, 16 g ai/ha, scale 0 to 100, 0 no effect, 100 complete control

With N#Cc1cccc(Oc2ncc(Cl)cn2)c1-n1cc(OC(F)F)cn1 [Compound 97] as the molecule, how does the “Plant response rating, Rice” value (rice; 31 g ai/ha) read?
The value was 0.

And the “Plant response rating, Rice” value (rice; 62 g ai/ha)?
The value was 0.

What about the “Plant response rating, Rice” value (rice; 125 g ai/ha) of the same molecule?
The value was 0.

And the “Plant response rating, Rice” value (rice; 250 g ai/ha)?
The value was 0.

What about the “Plant response rating, Ducksalad” value (ducksalad; 31 g ai/ha) of the same molecule?
Its value is 0.

What about the “Plant response rating, Ducksalad” value (ducksalad; 62 g ai/ha) of the same molecule?
The value was 40.

And the “Plant response rating, Ducksalad” value (ducksalad; 125 g ai/ha)?
The value was 75.

What about the “Plant response rating, Ducksalad” value (ducksalad; 250 g ai/ha) of the same molecule?
The value was 80.

For Clc1cnc(Oc2cccc(Cl)c2-n2cc(I)cn2)nc1 [Compound 181], which “Plant response rating, Corn” value (corn; [1]) is on record?
The value was 5.

And the “Plant response rating, Corn” value (corn; [2])?
Its value is 15.

What about the “Plant response rating, Corn” value (corn; [3]) of the same molecule?
Its value is 15.

And the “Plant response rating, Corn” value (corn; [4])?
The value was 5.

And the “Plant response rating, Soybean” value (soybean; [1])?
The value was 80.

What about the “Plant response rating, Soybean” value (soybean; [2]) of the same molecule?
The value was 90.

What about the “Plant response rating, Soybean” value (soybean; [3]) of the same molecule?
Its value is 95.

And the “Plant response rating, Soybean” value (soybean; [4])?
Its value is 50.

What about the “Plant response rating, Crabgrass, Brazil” value (Brazilian crabgrass; [1]) of the same molecule?
Its value is 20.

What about the “Plant response rating, Crabgrass, Brazil” value (Brazilian crabgrass; [2]) of the same molecule?
The value was 30.

And the “Plant response rating, Crabgrass, Brazil” value (Brazilian crabgrass; [3])?
Its value is 30.

What about the “Plant response rating, Crabgrass, Brazil” value (Brazilian crabgrass; [4]) of the same molecule?
Its value is 20.

What about the “Plant response rating, Barnyardgrass” value (barnyardgrass; [1]) of the same molecule?
Its value is 20.

What about the “Plant response rating, Barnyardgrass” value (barnyardgrass; [2]) of the same molecule?
The value was 15.

And the “Plant response rating, Barnyardgrass” value (barnyardgrass; [3])?
Its value is 25.

And the “Plant response rating, Barnyardgrass” value (barnyardgrass; [4])?
Its value is 10.

And the “Plant response rating, Sandbur” value (sandbur; [1])?
Its value is 15.

What about the “Plant response rating, Sandbur” value (sandbur; [2]) of the same molecule?
The value was 10.

What about the “Plant response rating, Sandbur” value (sandbur; [3]) of the same molecule?
Its value is 20.

And the “Plant response rating, Sandbur” value (sandbur; [4])?
Its value is 5.

What about the “Plant response rating, Arrowleaf Sida” value (arrowleaf sida; [1]) of the same molecule?
Its value is 75.

And the “Plant response rating, Arrowleaf Sida” value (arrowleaf sida; [2])?
The value was 70.

And the “Plant response rating, Arrowleaf Sida” value (arrowleaf sida; [3])?
The value was 95.

And the “Plant response rating, Arrowleaf Sida” value (arrowleaf sida; [4])?
Its value is 60.

Which “Plant response rating, Rice” value (rice; 250 g ai/ha) does the source give for FC(F)c1cnn(-c2ccccc2Oc2ncc(Cl)cn2)c1 [Compound 80, 5-chloro-2-[2-[4-(difluoromethyl)-1H-pyrazol-1-yl]phenoxy]pyrimidine] here?
The value was 0.

What about the “Plant response rating, Rice” value (rice; 500 g ai/ha) of the same molecule?
The value was 0.

What about the “Plant response rating, Rice” value (rice; 1000 g ai/ha) of the same molecule?
Its value is 0.

And the “Plant response rating, Rice” value (rice; 2000 g ai/ha)?
Its value is 0.

What about the “Plant response rating, Ducksalad” value (ducksalad; 250 g ai/ha) of the same molecule?
Its value is 50.

What about the “Plant response rating, Ducksalad” value (ducksalad; 500 g ai/ha) of the same molecule?
The value was 75.

What about the “Plant response rating, Ducksalad” value (ducksalad; 1000 g ai/ha) of the same molecule?
The value was 80.

And the “Plant response rating, Ducksalad” value (ducksalad; 2000 g ai/ha)?
The value was 80.

With FC(F)c1cnn(-c2c(Cl)cccc2Oc2ncc(Cl)cn2)c1 [Compound 192] as the molecule, how does the “Plant response rating, Rice” value (rice; 31 g ai/ha) read?
Its value is 0.

What about the “Plant response rating, Rice” value (rice; 62 g ai/ha) of the same molecule?
Its value is 0.

What about the “Plant response rating, Rice” value (rice; 125 g ai/ha) of the same molecule?
The value was 0.

And the “Plant response rating, Rice” value (rice; 250 g ai/ha)?
The value was 0.

And the “Plant response rating, Ducksalad” value (ducksalad; 31 g ai/ha)?
The value was 0.

What about the “Plant response rating, Ducksalad” value (ducksalad; 62 g ai/ha) of the same molecule?
The value was 0.

What about the “Plant response rating, Ducksalad” value (ducksalad; 125 g ai/ha) of the same molecule?
Its value is 70.

What about the “Plant response rating, Ducksalad” value (ducksalad; 250 g ai/ha) of the same molecule?
Its value is 75.

How did the “Plant response rating, Rice” value (rice; 31 g ai/ha) turn out when Fc1cccc(Oc2ncc(Cl)cn2)c1-n1cc(C(F)F)nn1 [Compound 141, 5-chloro-2-[2-[4-(difluoromethyl)-1H-1,2,3-triazol-1-yl]-3-fluorophenoxy]pyrimidine] was run?
The value was 0.

What about the “Plant response rating, Rice” value (rice; 62 g ai/ha) of the same molecule?
Its value is 0.

What about the “Plant response rating, Rice” value (rice; 125 g ai/ha) of the same molecule?
Its value is 40.

What about the “Plant response rating, Rice” value (rice; 250 g ai/ha) of the same molecule?
Its value is 60.

What about the “Plant response rating, Ducksalad” value (ducksalad; 31 g ai/ha) of the same molecule?
Its value is 65.

What about the “Plant response rating, Ducksalad” value (ducksalad; 62 g ai/ha) of the same molecule?
The value was 80.

What about the “Plant response rating, Ducksalad” value (ducksalad; 125 g ai/ha) of the same molecule?
The value was 95.

And the “Plant response rating, Ducksalad” value (ducksalad; 250 g ai/ha)?
Its value is 100.

With Fc1cccc(Oc2ncc(Cl)cn2)c1-n1cc(Cl)cn1 [Compound 177] as the molecule, how does the “Plant response rating, Rice” value (rice; 31 g ai/ha) read?
Its value is 0.

And the “Plant response rating, Rice” value (rice; 62 g ai/ha)?
The value was 0.

What about the “Plant response rating, Rice” value (rice; 125 g ai/ha) of the same molecule?
The value was 10.

What about the “Plant response rating, Rice” value (rice; 250 g ai/ha) of the same molecule?
Its value is 10.

And the “Plant response rating, Ducksalad” value (ducksalad; 31 g ai/ha)?
The value was 20.

What about the “Plant response rating, Ducksalad” value (ducksalad; 62 g ai/ha) of the same molecule?
The value was 60.

And the “Plant response rating, Ducksalad” value (ducksalad; 125 g ai/ha)?
The value was 85.

And the “Plant response rating, Ducksalad” value (ducksalad; 250 g ai/ha)?
The value was 95.
